Assay results published in patent US8716287B2, “Pharmaceutical compounds” (Sentinel Oncology Limited, priority 2010, dated 2014).
pIC50: −log10 of the molar value. Where a name gives a salt, the structure may show the parent alone. Read-outs that look alike come from different tables or passages of the source.

Tests used:
HT29 = experiment: Potentiation assay with DNA damaging agents in HT29 cells; format: cell-based; details: HT29 human colon cancer; gemcitabine; Example 4 at 4 μM
Method: (§1) The following protocol was used:
(§2) (a) HT29 cells were seeded in 96-well plates at a concentration of 3000 cells per well and allowed to adhere overnight prior to addition of compound or vehicle control.
(§3) (b) SN38 was prepared from a 10 mM DMSO stock to give a final concentration range of 1 μM, 300 nM, 100 nM, 30 nM, 10 nM, 3 nM, 1 nM, and vehicle control.
(§4) (c) Test compounds were prepared from 10 mM DMSO stocks to typically give a final concentration range of 3 μM, 1 μM, 0.3 μM. 0.1 μM, 0.03 μM and vehicle control. The final DMSO content was 0.4%.
(§5) (d) Test compounds were incubated with the cells for 72 h at 37° C. 5% CO2 in a humidified atmosphere.
(§6) (e) Alamar blue 10% (v/v) was then added and incubated for a further 6 h, and fluorescent product detected using the BMG FLUOstar plate reader.
(§7) (f) Data were analysed using a 4-parameter logistic equation in GraphPad Prism.
Sensitisation is determined by the enhancement in IC50 of SN38 by the addition of the Chk-1 kinase inhibitor. In the protocol described above, the IC50 for SN-38 is determined the presence of varying doses of the Chk-1 inhibitor. The fold shift represents a decrease in IC50 for SN-38 at a dose of Chk-1 inhibitor that has no effect by itself. […]

HT29 cells = experiment: Sensitisation of HT29 cells to SN38 (Alamar blue cell growth); format: cell-based, human; details: HT29 cells
Method: Studies were carried out to test the sensitising effect of compounds of the invention on the ability of the DNA damaging compound 7-ethyl-10-hydroxycamptothecin (SN38), an active metabolite of the anti-cancer drug irinotecan, to inhibit cell growth in HT29 cells.
as §1, §2, §3, §4, §5, §6, §7
(§8) Sensitisation is determined by the enhancement in IC50 of SN38 by the addition of the Chk-1 kinase inhibitor. In the protocol described above, the IC50 for SN-38 is determined the presence of varying doses of the Chk-1 inhibitor. The fold shift represents a decrease in IC50 for SN-38 at a dose of Chk-1 inhibitor that has no effect by itself.

Chk-1 kinase = Chk-1 kinase (Homo sapiens (Human), UniProt O14757); experiment: Chk-1 kinase inhibiting activity (33P-ATP filter assay, CHKtide substrate); format: biochemical
Chk-1 kinase, sequence (O14757 whole entry): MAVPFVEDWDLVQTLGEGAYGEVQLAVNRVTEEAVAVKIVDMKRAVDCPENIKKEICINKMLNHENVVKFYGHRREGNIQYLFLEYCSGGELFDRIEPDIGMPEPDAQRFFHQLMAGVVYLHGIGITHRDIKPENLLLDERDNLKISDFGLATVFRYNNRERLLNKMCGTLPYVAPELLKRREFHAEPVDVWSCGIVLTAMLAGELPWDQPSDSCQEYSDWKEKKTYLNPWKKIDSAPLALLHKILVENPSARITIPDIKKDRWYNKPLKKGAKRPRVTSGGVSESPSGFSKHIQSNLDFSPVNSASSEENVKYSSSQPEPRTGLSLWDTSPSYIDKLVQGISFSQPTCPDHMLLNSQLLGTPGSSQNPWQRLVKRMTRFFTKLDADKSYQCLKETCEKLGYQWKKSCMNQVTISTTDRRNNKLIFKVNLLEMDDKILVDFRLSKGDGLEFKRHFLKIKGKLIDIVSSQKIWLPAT

SW620 = experiment: Potentiation assay with DNA damaging agents in SW620 cells; format: cell-based; details: SW620 human colon adenocarcinoma
Method: as §1, §2, §3, §4, §5, §6, §7, §8
(§9) Using the general protocol set out in Example 67, the compound of Example 4 was tested in potentiation assays against a variety of cell lines in combination with several different DNA damaging anti-cancer agents.

Calu 6 = experiment: Potentiation assay with DNA damaging agents in Calu 6 cells; format: cell-based; details: Calu 6 human lung adenocarcinoma, Example 4 at 8 μM
Method: as §1, §2, §3, §4, §5, §6, §7, §8, §9

MV4-11 cells = experiment: Inhibition of cell growth in MV4-11 cells (Alamar blue); format: cell-based; details: Homo sapiens, 72 h incubation
Method: (§10) Studies were carried out to test the effect of compounds on the inhibition of cell growth in MOLM-13 and MV4-11 cells.
as §1
(§11) (a) Cells were seeded in 96-well plates at cell densities of 2500/well (MOLM-13) and 10,000/well (MV4-11). Cells were then incubated overnight prior to addition of compound or vehicle control.
(§12) (b) Test compounds were prepared from 10 mM DMSO stocks to give a final concentration range of 10 μM, 3 μM, 1 μM, 0.3 μM, 0.1 μM, […], […] and vehicle control. The DMSO content was constant at 0.1%.
(§13) (c) Test compounds were incubated with the cells for 72 h at 37° C. 5% CO2 in a humidified atmosphere.
(§14) (d) Alamar blue 10% (v/v) was then added and incubated for a further 4 h, and fluorescent product detected using the BMG FLUOstar plate reader.
(§15) (e) Media only background values were subtracted and the data analysed using a 4-parameter logistic equation in GraphPad Prism.
(§16) From the results obtained by following the above protocol, the IC50 values against MOLM-13 and MV4-11 cells of the compounds of Examples 20, 21, 22, 25, 33, 35, 37, 38, 44, 48, 49, 50, 51, 53, 54 and 55 were determined.

MOLM-13 cells = experiment: Inhibition of cell growth in MOLM-13 cells (Alamar blue); format: cell-based; details: Homo sapiens, 72 h incubation
Method: as §10, §1, §11, §12, §13, §14, §15, §16

[1] = Chk-1 kinase, Table 3, read-out: IC50
[2] = ranges given, read-out: IC50 values against Chk-1 kinase

| Compound | pIC50 (Chk-1 kinase; [1]) | pIC50 (Chk-1 kinase; [2]) | pIC50 (MV4-11 cells) | pIC50 (MOLM-13 cells) | Potentiation factor (HT29) | fold shift in the IC50 value of SN38 (HT29 cells; test compound at 1.25 μM) | Potentiation factor (SW620; SN-38, Example 4 at 4 μM) | Potentiation factor (SW620; etoposide, Example 4 at 1 μM) | Potentiation factor (SW620; gemcitabine, Example 4 at 2 μM) | Potentiation factor (Calu 6; SN-38) | Potentiation factor (Calu 6; etoposide) | Potentiation factor (Calu 6; gemcitabine) | fold shift in the IC50 value of SN38 (HT29 cells; test compound at 1 μM) | fold shift in the IC50 value of SN38 (HT29 cells; test compound at 3 μM) |
| --- | --- | --- | --- | --- | --- | --- | --- | --- | --- | --- | --- | --- | --- | --- |
| N#Cc1cnc(NC(=O)Nc2ccc(CCNCc3ccc(F)cc3)c(Cl)c2)cn1 [Example 4, 1-{3-Chloro-4-[2-(4-fluoro-benzylamino)-ethyl]-phenyl}-3-(5-cyano-pyrazin-2-yl)-urea] | 7.82 | 7.00 to 8.00 | – | – | 18 | three | 16.4 | 2.6 | 2.5 | 3.7 | 7.6 | 6.1 | – | – |
| CN1CCN(c2ccc(CNCCc3ccc(NC(=O)Nc4cnc(C#N)cn4)cc3Cl)cc2)CC1 [Example 35, 1-(3-Chloro-4-{2-[4-(4-methyl-piperazin-1-yl)-benzylamino]-ethyl}-phenyl)-3-(5-cyano-pyrazin-2-yl)-urea] | 8.85 | > 8.00 | 5.41 | 5.89 | – | – | – | – | – | – | – | – | two | – |
| COc1cc(CCNCc2ccc(F)cc2)c(Cl)cc1NC(=O)Nc1cnc(C#N)cn1 [Example 37, 1-{5-Chloro-4-[2-(4-fluoro-benzylamino)-ethyl]-2-methoxy-phenyl}-3-(5-cyano-pyrazin-2-yl)-urea hydrochloride] | 8.80 | > 8.00 | 6.00 | 6.24 | – | – | – | – | – | – | – | – | two | greater than ten |
| CN1CCN(c2cccc(CNCCc3ccc(NC(=O)Nc4cnc(C#N)cn4)cc3Cl)c2)CC1 [Example 38, 1-(3-Chloro-4-{2-[3-(4-methyl-piperazin-1-yl)-benzylamino]-ethyl}-phenyl)-3-(5-cyano-pyrazin-2-yl)-urea] | 8.04 | > 8.00 | 5.61 | 6.21 | – | – | – | – | – | – | – | – | – | three |
| COc1cccc(CNCCc2cc(OC)c(NC(=O)Nc3cnc(C#N)cn3)cc2Cl)c1 [Example 48, 1-{5-Chloro-2-methoxy-4-[2-(3-methoxy-benzylamino)-ethyl]-phenyl}-3-(5-cyano-pyrazin-2-yl)-urea hydrochloride] | 9.33 | > 8.00 | 6.72 | 7.00 | – | – | – | – | – | – | – | – | two | greater than ten |

The next lines start with results.

| pIC50 (Chk-1 kinase; [1]) | pIC50 (Chk-1 kinase; [2]) | pIC50 (MV4-11 cells) | pIC50 (MOLM-13 cells) | Compound | Potentiation factor (HT29) | fold shift in the IC50 value of SN38 (HT29 cells; test compound at 1.25 μM) | Potentiation factor (SW620; SN-38, Example 4 at 4 μM) | Potentiation factor (SW620; etoposide, Example 4 at 1 μM) | Potentiation factor (SW620; gemcitabine, Example 4 at 2 μM) | Potentiation factor (Calu 6; SN-38) | Potentiation factor (Calu 6; etoposide) | Potentiation factor (Calu 6; gemcitabine) | fold shift in the IC50 value of SN38 (HT29 cells; test compound at 1 μM) | fold shift in the IC50 value of SN38 (HT29 cells; test compound at 3 μM) |
| --- | --- | --- | --- | --- | --- | --- | --- | --- | --- | --- | --- | --- | --- | --- |
| 9.55 | > 8.00 | 6.92 | 7.22 | COc1ccc(CNCCc2cc(OC)c(NC(=O)Nc3cnc(C#N)cn3)cc2Cl)cc1 [Example 49, 1-{5-Chloro-2-methoxy-4-[2-(4-methoxy-benzylamino)-ethyl]-phenyl}-3-(5-cyano-pyrazin-2-yl)-urea hydrochloride] | – | – | – | – | – | – | – | – | two | greater than ten |
| 9.35 | > 8.00 | 6.51 | 7.15 | COc1cc(CCNCc2ccc(N3CCN(C)CC3)cc2)c(Cl)cc1NC(=O)Nc1cnc(C#N)cn1 [Example 50, 1-(5-Chloro-2-methoxy-4-{2-[4-(4-methyl-piperazin-1-yl)-benzylamino]-ethyl}-phenyl)-3-(5-cyano-pyrazin-2-yl)-urea hydrochloride] | – | – | – | – | – | – | – | – | two | – |
